Assay results taken from paper PMC10924921, “Mi-2β promotes immune evasion in melanoma by activating EZH2 methylation” (Nature Communications, 2024).

Assays:
Assay in all cases: biochemical
Parameters in all cases: KINOMEscan active-site competition binding panel (468 kinase assays), per cent of control at 1000 nM
Conditions in all cases: KINOMEscan per cent of control (binding competition); read-out: Percent Control
[1] = target: T1, ABL1(T315I)-phosphorylated (Homo sapiens, UniProt P00519, T315I)
T1 construct: phosphorylated
Excerpt: (§1) Figure S7 / Percent Control

[2] = target: AKT2 (Homo sapiens, UniProt P31751)
Excerpt: as §1

[3] = target: AKT3 (Homo sapiens, UniProt Q9Y243)
Excerpt: as §1

[4] = target: CIT (Homo sapiens, UniProt O14578)
Chain of CIT (O14578 whole entry): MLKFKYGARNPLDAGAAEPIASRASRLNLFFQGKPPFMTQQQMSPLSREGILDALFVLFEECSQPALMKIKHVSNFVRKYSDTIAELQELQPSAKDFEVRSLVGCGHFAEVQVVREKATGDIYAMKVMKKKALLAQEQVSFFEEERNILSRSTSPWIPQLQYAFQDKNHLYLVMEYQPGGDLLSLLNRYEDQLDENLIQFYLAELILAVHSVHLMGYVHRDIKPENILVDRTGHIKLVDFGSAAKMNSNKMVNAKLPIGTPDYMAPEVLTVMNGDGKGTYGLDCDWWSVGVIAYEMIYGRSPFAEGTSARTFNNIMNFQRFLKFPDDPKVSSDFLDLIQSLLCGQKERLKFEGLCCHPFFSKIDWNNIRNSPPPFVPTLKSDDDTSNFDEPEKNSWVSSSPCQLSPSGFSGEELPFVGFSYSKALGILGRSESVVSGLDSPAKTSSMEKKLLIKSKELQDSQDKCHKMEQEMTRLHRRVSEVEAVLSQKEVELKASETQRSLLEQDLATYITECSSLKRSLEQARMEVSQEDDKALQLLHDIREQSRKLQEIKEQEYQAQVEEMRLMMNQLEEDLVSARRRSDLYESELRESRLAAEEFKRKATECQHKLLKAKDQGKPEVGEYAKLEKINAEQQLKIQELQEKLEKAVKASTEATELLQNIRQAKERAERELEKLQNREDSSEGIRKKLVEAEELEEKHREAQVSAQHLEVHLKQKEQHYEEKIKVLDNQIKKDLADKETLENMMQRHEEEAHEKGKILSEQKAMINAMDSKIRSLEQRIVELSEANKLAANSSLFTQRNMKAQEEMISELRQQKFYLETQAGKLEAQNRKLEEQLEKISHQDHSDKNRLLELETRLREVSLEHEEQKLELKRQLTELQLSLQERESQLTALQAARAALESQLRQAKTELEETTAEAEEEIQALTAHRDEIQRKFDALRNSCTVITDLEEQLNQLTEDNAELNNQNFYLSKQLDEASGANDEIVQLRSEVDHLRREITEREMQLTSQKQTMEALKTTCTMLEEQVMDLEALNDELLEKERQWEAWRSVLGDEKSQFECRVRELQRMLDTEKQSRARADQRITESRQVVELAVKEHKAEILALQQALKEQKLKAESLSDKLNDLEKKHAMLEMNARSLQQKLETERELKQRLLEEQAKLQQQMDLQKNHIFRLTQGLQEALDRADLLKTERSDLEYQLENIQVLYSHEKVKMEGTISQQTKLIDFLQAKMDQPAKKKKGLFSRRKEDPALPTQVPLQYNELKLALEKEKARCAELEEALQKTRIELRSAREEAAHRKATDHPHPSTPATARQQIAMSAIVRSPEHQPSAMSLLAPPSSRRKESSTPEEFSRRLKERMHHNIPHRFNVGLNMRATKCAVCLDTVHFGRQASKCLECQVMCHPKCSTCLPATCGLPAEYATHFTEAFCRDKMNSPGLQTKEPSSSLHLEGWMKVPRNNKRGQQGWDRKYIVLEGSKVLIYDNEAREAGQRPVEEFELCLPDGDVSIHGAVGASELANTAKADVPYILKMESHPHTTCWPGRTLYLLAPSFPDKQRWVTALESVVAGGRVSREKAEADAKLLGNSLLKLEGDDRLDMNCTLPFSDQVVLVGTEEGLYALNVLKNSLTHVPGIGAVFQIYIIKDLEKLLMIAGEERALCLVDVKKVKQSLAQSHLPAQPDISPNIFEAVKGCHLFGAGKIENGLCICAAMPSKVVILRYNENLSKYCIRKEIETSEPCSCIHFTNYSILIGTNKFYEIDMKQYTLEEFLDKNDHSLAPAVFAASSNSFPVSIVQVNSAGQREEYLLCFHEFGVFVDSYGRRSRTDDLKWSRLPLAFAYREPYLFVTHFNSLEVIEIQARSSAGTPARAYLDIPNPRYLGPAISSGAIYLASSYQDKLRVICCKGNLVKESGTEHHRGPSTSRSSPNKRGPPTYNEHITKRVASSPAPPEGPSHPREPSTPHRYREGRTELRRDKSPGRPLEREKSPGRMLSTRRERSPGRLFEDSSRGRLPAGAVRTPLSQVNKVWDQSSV
Excerpt: as §1

[5] = target: CSNK1D (Homo sapiens, UniProt P48730)
Excerpt: as §1

[6] = target: EPHB3 (Homo sapiens, UniProt P54753)
Excerpt: as §1

[7] = target: FLT3(D835Y) (Homo sapiens, UniProt P36888, D835Y)
Excerpt: as §1

[8] = target: FLT3(ITD,D835V) (Homo sapiens, UniProt P36888, D835V/ITD)
Excerpt: as §1

[9] = target: HIPK2 (Homo sapiens, UniProt Q9H2X6)
Excerpt: as §1

[10] = target: IRAK1 (Homo sapiens, UniProt P51617)
Excerpt: as §1

[11] = target: LRRK2 (Homo sapiens, UniProt Q5S007)
Excerpt: as §1

[12] = target: MAPKAPK5 (Homo sapiens, UniProt Q8IW41)
Excerpt: as §1

[13] = target: T2, MEK4 (Homo sapiens, UniProt P45985)
T2 construct: gene MAP2K4
T2 sequence (P45985 whole entry): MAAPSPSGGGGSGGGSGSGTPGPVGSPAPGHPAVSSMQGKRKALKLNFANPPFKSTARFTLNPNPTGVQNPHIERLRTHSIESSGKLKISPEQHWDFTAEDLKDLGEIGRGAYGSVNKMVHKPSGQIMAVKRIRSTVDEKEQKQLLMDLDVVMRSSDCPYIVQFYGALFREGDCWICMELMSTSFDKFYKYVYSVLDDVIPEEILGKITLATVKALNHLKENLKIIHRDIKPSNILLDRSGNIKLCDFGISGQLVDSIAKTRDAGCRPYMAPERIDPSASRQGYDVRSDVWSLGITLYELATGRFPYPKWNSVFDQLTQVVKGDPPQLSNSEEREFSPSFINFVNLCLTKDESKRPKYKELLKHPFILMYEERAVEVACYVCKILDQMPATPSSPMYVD
Excerpt: as §1

[14] = target: T3, MEK5 (Homo sapiens, UniProt Q13163)
T3 construct: gene MAP2K5
Excerpt: as §1

[15] = target: T4, NDR1 (Homo sapiens, UniProt Q15208)
T4 construct: gene STK38
Excerpt: as §1

[16] = target: NEK3 (Homo sapiens, UniProt P51956)
Excerpt: as §1

[17] = target: PAK6 (Homo sapiens, UniProt Q9NQU5)
Excerpt: as §1

[18] = target: PIK3C2B (Homo sapiens, UniProt O00750)
Chain of PIK3C2B (O00750 whole entry): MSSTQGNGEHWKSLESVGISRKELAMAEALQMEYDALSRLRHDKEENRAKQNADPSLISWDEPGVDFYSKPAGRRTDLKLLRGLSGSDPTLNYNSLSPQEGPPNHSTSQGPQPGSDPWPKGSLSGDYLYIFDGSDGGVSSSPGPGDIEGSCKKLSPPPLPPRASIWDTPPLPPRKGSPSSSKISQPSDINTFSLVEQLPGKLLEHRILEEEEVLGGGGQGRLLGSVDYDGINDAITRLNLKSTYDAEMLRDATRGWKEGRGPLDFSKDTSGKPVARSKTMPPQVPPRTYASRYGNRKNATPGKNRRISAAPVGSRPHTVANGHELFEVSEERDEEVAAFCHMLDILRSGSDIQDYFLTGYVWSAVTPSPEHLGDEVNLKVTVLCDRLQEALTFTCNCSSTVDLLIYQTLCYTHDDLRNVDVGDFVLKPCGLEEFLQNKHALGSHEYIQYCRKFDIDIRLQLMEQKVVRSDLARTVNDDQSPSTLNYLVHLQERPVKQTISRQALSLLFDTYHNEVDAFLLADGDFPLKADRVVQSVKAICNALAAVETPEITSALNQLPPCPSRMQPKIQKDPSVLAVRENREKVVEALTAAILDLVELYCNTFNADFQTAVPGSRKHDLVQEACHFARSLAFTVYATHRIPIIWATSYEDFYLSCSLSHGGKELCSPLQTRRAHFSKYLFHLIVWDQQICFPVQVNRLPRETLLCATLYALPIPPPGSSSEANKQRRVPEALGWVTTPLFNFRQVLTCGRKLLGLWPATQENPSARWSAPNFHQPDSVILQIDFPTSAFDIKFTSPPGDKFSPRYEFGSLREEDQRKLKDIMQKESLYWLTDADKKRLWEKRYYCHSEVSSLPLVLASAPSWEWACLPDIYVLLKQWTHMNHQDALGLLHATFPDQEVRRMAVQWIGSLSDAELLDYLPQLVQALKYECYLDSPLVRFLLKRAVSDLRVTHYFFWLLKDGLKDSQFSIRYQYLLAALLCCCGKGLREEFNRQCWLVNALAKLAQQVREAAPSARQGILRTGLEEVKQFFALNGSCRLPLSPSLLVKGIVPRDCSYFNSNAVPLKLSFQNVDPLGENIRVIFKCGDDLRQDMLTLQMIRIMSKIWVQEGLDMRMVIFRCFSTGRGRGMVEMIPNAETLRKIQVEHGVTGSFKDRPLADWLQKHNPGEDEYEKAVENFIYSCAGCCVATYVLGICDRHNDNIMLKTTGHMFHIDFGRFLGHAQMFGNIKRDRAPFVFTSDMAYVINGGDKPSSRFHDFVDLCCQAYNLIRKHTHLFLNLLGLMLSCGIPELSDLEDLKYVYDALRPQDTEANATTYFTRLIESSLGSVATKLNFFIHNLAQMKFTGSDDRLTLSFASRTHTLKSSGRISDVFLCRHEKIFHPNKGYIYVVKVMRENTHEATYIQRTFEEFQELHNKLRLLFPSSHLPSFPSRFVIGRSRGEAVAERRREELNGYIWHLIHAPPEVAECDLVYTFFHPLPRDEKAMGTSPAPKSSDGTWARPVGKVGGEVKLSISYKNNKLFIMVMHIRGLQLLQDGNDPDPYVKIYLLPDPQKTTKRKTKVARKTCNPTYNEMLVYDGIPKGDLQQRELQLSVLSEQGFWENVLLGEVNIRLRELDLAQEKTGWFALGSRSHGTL
Excerpt: as §1

[19] = target: PIK3CA(M1043I) (Homo sapiens, UniProt P42336, M1043I)
Excerpt: as §1

[20] = target: PIK3CD (Homo sapiens, UniProt O00329)
Excerpt: as §1

[21] = target: PIM2 (Homo sapiens, UniProt Q9P1W9)
Excerpt: as §1

[22] = target: PLK4 (Homo sapiens, UniProt O00444)
Chain of PLK4 (O00444 whole entry): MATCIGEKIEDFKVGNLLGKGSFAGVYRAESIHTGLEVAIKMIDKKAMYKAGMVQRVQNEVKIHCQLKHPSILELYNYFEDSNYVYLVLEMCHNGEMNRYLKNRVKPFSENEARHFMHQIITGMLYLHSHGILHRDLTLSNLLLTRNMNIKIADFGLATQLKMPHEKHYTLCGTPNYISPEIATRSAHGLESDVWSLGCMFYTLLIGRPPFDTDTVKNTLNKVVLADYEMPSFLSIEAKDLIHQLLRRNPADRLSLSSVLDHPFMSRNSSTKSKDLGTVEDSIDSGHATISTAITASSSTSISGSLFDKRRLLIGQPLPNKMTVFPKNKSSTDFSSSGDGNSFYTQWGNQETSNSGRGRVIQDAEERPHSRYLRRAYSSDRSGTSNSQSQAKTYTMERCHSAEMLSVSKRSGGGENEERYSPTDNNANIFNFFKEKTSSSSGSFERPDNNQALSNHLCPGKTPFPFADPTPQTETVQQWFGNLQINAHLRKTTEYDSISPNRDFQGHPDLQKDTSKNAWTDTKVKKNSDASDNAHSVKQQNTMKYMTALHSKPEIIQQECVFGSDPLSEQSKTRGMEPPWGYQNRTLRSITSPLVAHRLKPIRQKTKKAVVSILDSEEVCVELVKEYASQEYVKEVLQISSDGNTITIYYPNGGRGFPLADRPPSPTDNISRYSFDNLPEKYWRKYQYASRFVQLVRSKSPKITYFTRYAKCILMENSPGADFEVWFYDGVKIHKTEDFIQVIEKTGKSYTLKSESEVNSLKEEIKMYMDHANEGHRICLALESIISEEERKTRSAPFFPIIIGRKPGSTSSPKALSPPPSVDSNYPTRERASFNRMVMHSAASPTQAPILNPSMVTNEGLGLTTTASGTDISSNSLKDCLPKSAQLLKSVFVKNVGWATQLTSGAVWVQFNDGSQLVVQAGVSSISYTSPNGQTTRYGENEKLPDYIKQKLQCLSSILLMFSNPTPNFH
Excerpt: as §1

[23] = target: T5, TIE2 (Homo sapiens, UniProt Q02763)
T5 construct: gene TEK
Excerpt: as §1

[24] = target: T6, VEGFR2 (Homo sapiens, UniProt P35968)
T6 construct: gene KDR
Excerpt: as §1

[25] = target: T7, YES (Homo sapiens, UniProt P07947)
T7 construct: gene YES1
Excerpt: as §1

Cn1c(=O)[nH]c2ccc(-c3cccc(C(=O)NC4CCn5ccnc5C4)c3)cc21 (stereo not shown) [Z36-MP5]
remaining binding at 1 µM [1]: 49% | remaining binding at 1 µM [2]: 89% | remaining binding at 1 µM [3]: 91% | remaining binding at 1 µM [4]: 76% | remaining binding at 1 µM [5]: 98% | remaining binding at 1 µM [6]: 78% | remaining binding at 1 µM [7]: 88% | remaining binding at 1 µM [8]: 56% | remaining binding at 1 µM [9]: 64% | remaining binding at 1 µM [10]: 80% | remaining binding at 1 µM [11]: 71% | remaining binding at 1 µM [12]: 63% | remaining binding at 1 µM [13]: 84% | remaining binding at 1 µM [14]: 60% | remaining binding at 1 µM [15]: 81% | remaining binding at 1 µM [16]: 50% | remaining binding at 1 µM [17]: 91% | remaining binding at 1 µM [18]: 87% | remaining binding at 1 µM [19]: 83% | remaining binding at 1 µM [20]: 74% | remaining binding at 1 µM [21]: 91% | remaining binding at 1 µM [22]: 31% | remaining binding at 1 µM [23]: 58% | remaining binding at 1 µM [24]: 56% | remaining binding at 1 µM [25]: 99%
